This note sets out measurements from patent publication US10501461B2, “Tyrosine amide derivatives as Rho-kinase inhibitors” (CHIESI FARMACEUTICI S.P.A., priority 2017, dated 2019).

One assay deals with Rho kinase 2 (ROCK-II) (Homo sapiens, UniProt O75116). The assay can be described thus: In vitro Rho kinase inhibitory activity assay (ADP-Glo), Rho kinase 2. It counts as biochemical. Conditions: 10 μM ATP, 25° C., expressed as range of activity. The procedure, abridged: (§1)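 Kinase activity is measured as ADP production (ADP-Glo, luminescence) after 1 hour at 25 °C with 10 μM ATP and 2.5 μM Myelin Basic Protein, following 30 min enzyme–compound preincubation. Buffer is 40 mM Tris pH7.5, 20 mM MgCl2, 0.1 mg/ml BSA, 50 μM DTT.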
(ADP-Glo turns the ADP formed in a reaction into a luminescent signal.)

A further assay addresses Rho kinase 1 (ROCK-I) (Homo sapiens, UniProt Q13464). The experiment in a line: In vitro Rho kinase inhibitory activity assay (ADP-Glo), Rho kinase 1. The note with it: 10 μM ATP, 25° C., expressed as range of activity. It counts as biochemical. The procedure, abridged: as §1

Structures are written as SMILES. Bounds are passed on as bounds.

Rho kinase 1 (ROCK-I), sequence (Q13464 whole entry): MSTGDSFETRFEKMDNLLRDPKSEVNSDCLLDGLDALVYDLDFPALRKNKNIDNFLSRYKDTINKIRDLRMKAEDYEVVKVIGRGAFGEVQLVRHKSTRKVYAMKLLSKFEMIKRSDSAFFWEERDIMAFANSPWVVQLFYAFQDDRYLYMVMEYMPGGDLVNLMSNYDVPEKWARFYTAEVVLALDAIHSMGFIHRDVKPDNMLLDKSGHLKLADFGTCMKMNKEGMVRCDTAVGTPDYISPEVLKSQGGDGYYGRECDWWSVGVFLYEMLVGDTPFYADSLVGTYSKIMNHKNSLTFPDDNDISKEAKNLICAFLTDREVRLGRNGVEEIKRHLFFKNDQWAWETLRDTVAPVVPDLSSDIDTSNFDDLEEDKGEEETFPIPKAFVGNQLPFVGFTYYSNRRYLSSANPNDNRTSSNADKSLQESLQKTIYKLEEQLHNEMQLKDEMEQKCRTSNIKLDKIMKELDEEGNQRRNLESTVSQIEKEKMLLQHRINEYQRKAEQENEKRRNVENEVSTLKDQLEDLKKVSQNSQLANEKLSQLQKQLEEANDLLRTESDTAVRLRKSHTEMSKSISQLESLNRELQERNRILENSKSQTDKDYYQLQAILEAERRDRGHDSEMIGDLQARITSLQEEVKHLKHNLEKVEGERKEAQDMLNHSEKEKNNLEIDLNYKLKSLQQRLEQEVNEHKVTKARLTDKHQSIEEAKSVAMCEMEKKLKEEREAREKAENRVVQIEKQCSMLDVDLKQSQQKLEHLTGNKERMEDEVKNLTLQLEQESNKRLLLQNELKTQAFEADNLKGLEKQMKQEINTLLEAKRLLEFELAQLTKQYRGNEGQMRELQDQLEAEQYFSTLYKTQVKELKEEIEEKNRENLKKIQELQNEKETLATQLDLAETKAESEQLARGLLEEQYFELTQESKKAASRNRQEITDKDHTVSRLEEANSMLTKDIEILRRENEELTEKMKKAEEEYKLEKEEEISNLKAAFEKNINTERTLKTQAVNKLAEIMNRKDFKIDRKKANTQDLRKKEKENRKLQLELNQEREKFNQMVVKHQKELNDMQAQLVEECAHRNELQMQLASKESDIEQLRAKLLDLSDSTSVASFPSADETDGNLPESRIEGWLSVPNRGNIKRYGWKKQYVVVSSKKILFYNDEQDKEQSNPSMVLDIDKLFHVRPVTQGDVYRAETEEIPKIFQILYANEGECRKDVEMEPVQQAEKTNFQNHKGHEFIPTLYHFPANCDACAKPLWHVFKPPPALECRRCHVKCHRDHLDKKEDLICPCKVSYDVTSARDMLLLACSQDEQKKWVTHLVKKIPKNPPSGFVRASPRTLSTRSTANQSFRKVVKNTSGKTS
Rho kinase 2 (ROCK-II), sequence (O75116 whole entry): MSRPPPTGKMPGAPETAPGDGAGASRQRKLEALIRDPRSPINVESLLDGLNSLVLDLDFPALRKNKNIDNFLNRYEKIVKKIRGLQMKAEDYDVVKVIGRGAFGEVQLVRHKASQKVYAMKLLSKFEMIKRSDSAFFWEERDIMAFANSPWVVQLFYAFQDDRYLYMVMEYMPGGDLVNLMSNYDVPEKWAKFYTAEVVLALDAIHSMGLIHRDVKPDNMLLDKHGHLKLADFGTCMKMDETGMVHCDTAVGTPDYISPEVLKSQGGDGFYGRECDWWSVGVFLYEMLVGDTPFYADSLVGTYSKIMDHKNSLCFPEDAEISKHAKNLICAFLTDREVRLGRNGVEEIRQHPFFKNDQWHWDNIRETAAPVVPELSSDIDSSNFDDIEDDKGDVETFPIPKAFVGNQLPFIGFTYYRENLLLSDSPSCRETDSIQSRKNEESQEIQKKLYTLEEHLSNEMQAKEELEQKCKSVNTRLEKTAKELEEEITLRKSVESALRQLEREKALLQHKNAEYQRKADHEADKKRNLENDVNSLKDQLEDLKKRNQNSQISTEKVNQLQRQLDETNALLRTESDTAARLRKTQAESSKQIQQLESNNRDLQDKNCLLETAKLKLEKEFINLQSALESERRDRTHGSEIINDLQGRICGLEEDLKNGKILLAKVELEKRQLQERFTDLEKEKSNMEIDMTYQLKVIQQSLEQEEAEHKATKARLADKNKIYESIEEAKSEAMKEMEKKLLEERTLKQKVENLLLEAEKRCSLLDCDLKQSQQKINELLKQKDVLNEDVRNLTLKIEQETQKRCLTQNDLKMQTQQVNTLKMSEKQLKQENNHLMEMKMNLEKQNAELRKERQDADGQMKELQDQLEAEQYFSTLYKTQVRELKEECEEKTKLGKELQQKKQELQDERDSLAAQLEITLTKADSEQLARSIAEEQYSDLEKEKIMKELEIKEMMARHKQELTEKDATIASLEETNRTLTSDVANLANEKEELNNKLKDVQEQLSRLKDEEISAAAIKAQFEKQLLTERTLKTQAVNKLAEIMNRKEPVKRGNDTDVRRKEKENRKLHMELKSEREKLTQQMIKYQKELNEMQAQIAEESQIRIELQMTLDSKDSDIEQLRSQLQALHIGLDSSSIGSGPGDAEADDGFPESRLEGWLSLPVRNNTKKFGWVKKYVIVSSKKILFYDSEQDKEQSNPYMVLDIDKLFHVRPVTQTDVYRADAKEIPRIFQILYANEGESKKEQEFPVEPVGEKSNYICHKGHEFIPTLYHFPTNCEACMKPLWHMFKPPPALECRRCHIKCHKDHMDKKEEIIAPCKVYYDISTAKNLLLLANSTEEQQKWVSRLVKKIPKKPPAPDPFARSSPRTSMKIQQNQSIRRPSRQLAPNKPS

For the molecule `N[C@@H](Cc1ccc(Oc2ccnc3[nH]ccc23)cc1)C(=O)Nc1nccs1` [Example 105, (S)-3-(4-((1H-pyrrolo[2,3-b]pyridin-4-yl)oxy)phenyl)-2-amino-N-(thiazol-2-yl)propanamide], the Ki on Rho kinase 2 (ROCK-II) and at Rho kinase 1 (ROCK-I) was 3 to 30 nM in each case.
As for `Cc1nc(CN2CCN(C(=O)[C@@H](N)Cc3ccc(Oc4ccnc5[nH]cc(C)c45)c(F)c3)CC2)cs1` [Example 157, (S)-2-amino-3-(3-fluoro-4-((3-methyl-1H-pyrrolo[2,3-b]pyridin-4-yl)oxy)phenyl)-1-(4-((2-methylthiazol-4-yl)methyl)piperazin-1-yl)propan-1-one], the Ki on Rho kinase 2 (ROCK-II) and on Rho kinase 1 (ROCK-I) was below 3 nM each time.
In the case of `N[C@@H](Cc1ccc(Oc2ccnc3[nH]cc(Cl)c23)cc1)C(=O)NC1CCCCC1` [Example 191, (S)-2-amino-3-(4-((3-chloro-1H-pyrrolo[2,3-b]pyridin-4-yl)oxy)phenyl)-N-cyclohexylpropanamide], the Ki on Rho kinase 2 (ROCK-II) and on Rho kinase 1 (ROCK-I) was below 3 nM in each case.
With `N[C@@H](Cc1ccc(Oc2ccnc3[nH]ccc23)cn1)C(=O)NC1CCCCC1` [Example 227, (S)-3-(5-((1H-pyrrolo[2,3-b]pyridin-4-yl)oxy)pyridin-2-yl)-2-amino-N-cyclohexylpropanamide], the Ki on Rho kinase 2 (ROCK-II) and at Rho kinase 1 (ROCK-I) was above 30 nM each time.
Regarding `Cc1c[nH]c2nccc(Oc3ccc(CC(N)C(=O)NCCCN4CCOCC4)cc3F)c12` (stereo not shown) [Example 79, 2-amino-3-(3-fluoro-4-((3-methyl-1H-pyrrolo[2,3-b]pyridin-4-yl)oxy)phenyl)-N-(3-morpholinopropyl)propanamide], the Ki at Rho kinase 2 (ROCK-II) and on Rho kinase 1 (ROCK-I) was below 3 nM each time.
In the case of `Cc1c[nH]c2nccc(Oc3ccc(CC(N)C(=O)N4CCCCC4)cc3F)c12` (stereo not shown) [Example 77, 2-amino-3-(3-fluoro-4-((3-methyl-1H-pyrrolo[2,3-b]pyridin-4-yl)oxy)phenyl)-1-(piperidin-1-yl)propan-1-one], the Ki on Rho kinase 2 (ROCK-II) and on Rho kinase 1 (ROCK-I) was below 3 nM in each case.
In the case of `O=C(NC(Cc1ccc(Oc2ccnc3[nH]ccc23)cc1)C(=O)Nc1ccccc1)C1CCNC1` (stereo not shown) [Example 179, N-(3-(4-((1H-pyrrolo[2,3-b]pyridin-4-yl)oxy)phenyl)-1-oxo-1-(phenylamino)propan-2-yl)pyrrolidine-3-carboxamide], the Ki on Rho kinase 2 (ROCK-II) and on Rho kinase 1 (ROCK-I) was 3 to 30 nM in each case.
In the case of `Cc1noc(C2CCN(C(=O)[C@@H](N)Cc3ccc(Oc4ccnc5[nH]cc(C)c45)c(F)c3)C2)n1` (stereo partly drawn) [Example 8, (2S)-2-amino-3-(3-fluoro-4-((3-methyl-1H-pyrrolo[2,3-b]pyridin-4-yl)oxy)phenyl)-1-(3-(3-methyl-1,2,4-oxadiazol-5-yl)pyrrolidin-1-yl)propan-1-one], the Ki at Rho kinase 2 (ROCK-II) and at Rho kinase 1 (ROCK-I) was below 3 nM throughout.
For the molecule `Cc1c[nH]c2nccc(Oc3ccc(C[C@H](N)C(=O)NCC4CCCCC4)cc3)c12` [Example 139, (S)-2-amino-N-(cyclohexylmethyl)-3-(4-((3-methyl-1H-pyrrolo[2,3-b]pyridin-4-yl)oxy)phenyl)propanamide], the Ki at Rho kinase 2 (ROCK-II) and at Rho kinase 1 (ROCK-I) was below 3 nM throughout.
As to `Cc1c[nH]c2nccc(Oc3ccc(CC(N)C(=O)N4CCN(Cc5ccc(F)cc5)CC4)cc3F)c12` (stereo not shown) [Example 74, 2-amino-3-(3-fluoro-4-((3-methyl-1H-pyrrolo[2,3-b]pyridin-4-yl)oxy)phenyl)-1-(4-(4-fluorobenzyl)piperazin-1-yl)propan-1-one], the Ki on Rho kinase 2 (ROCK-II) and at Rho kinase 1 (ROCK-I) was below 3 nM in each case.
`N[C@@H](Cc1ccc(Oc2ccnc3[nH]cc(C4CC4)c23)cc1)C(=O)NC1CCCCC1` [Example 203, (S)-2-amino-N-cyclohexyl-3-(4-((3-cyclopropyl-1H-pyrrolo[2,3-b]pyridin-4-yl)oxy)phenyl)propanamide]: the Ki on Rho kinase 2 (ROCK-II) and at Rho kinase 1 (ROCK-I) was below 3 nM throughout.

As usually defined, the Ki is a dissociation constant, usually derived from enzyme kinetics or from competition with a known ligand. Read a low Ki as a stronger hold on the target.
